{"source": "the NIST ThermoML archive (doi:10.1021/je049656o)", "experiment": "mn = molality of the nth substance listed, in mol/kg", "conditions": "298.15 K, 101.33 kPa, Liquid", "note": "Numbers after ± are expanded uncertainties.", "data": [{"smiles": "O=c1[nH]cc(F)c(=O)[nH]1", "note": "[5-fluoro-2,4(1H,3H)-pyrimidinedione] + CO", "values": [{"measurement": "molar enthalpy of solution", "setting": "m1 = 0.000844", "value": "14.5 ± 0.58", "unit": "kJ/mol"}, {"measurement": "molar enthalpy of solution", "setting": "m1 = 0.000963", "value": "14.4 ± 0.58", "unit": "kJ/mol"}, {"measurement": "molar enthalpy of solution", "setting": "m1 = 0.001039", "value": "14.3 ± 0.57", "unit": "kJ/mol"}, {"measurement": "molar enthalpy of solution", "setting": "m1 = 0.00126", "value": "14.3 ± 0.57", "unit": "kJ/mol"}, {"measurement": "molar enthalpy of solution", "setting": "m1 = 0.001578", "value": "14.3 ± 0.57", "unit": "kJ/mol"}, {"measurement": "molar enthalpy of solution", "setting": "m1 = 0.001848", "value": "14.5 ± 0.58", "unit": "kJ/mol"}]}, {"smiles": "Oc1ncc(Cl)c(O)n1", "note": "[5-chloro-2,4-pyrimidinedione] + CO", "values": [{"measurement": "molar enthalpy of solution", "setting": "m1 = 0.000652", "value": "8.85 ± 0.71", "unit": "kJ/mol"}, {"measurement": "molar enthalpy of solution", "setting": "m1 = 0.000899", "value": "9.62 ± 0.77", "unit": "kJ/mol"}, {"measurement": "molar enthalpy of solution", "setting": "m1 = 0.000901", "value": "9.58 ± 0.77", "unit": "kJ/mol"}, {"measurement": "molar enthalpy of solution", "setting": "m1 = 0.000954", "value": "9.31 ± 0.74", "unit": "kJ/mol"}, {"measurement": "molar enthalpy of solution", "setting": "m1 = 0.000982", "value": "8.83 ± 0.71", "unit": "kJ/mol"}, {"measurement": "molar enthalpy of solution", "setting": "m1 = 0.001245", "value": "8.85 ± 0.71", "unit": "kJ/mol"}]}, {"smiles": "O=c1[nH]cc(I)c(=O)[nH]1", "note": "[5-iodouracil] + CO", "values": [{"measurement": "molar enthalpy of solution", "setting": "m1 = 0.000481", "value": "18.3 ± 0.73", "unit": "kJ/mol"}, {"measurement": "molar enthalpy of solution", "setting": "m1 = 0.000487", "value": "18.2 ± 0.73", "unit": "kJ/mol"}, {"measurement": "molar enthalpy of solution", "setting": "m1 = 0.000551", "value": "17.6 ± 0.71", "unit": "kJ/mol"}, {"measurement": "molar enthalpy of solution", "setting": "m1 = 0.000618", "value": "18.3 ± 0.73", "unit": "kJ/mol"}, {"measurement": "molar enthalpy of solution", "setting": "m1 = 0.000626", "value": "18 ± 0.72", "unit": "kJ/mol"}, {"measurement": "molar enthalpy of solution", "setting": "m1 = 0.000769", "value": "17.6 ± 0.7", "unit": "kJ/mol"}]}, {"smiles": "O=c1cc(Cl)[nH]c(=O)[nH]1", "note": "[6-chlorouracil] + CO", "values": [{"measurement": "molar enthalpy of solution", "setting": "m1 = 0.000624", "value": "16.8 ± 0.67", "unit": "kJ/mol"}, {"measurement": "molar enthalpy of solution", "setting": "m1 = 0.000862", "value": "17 ± 0.68", "unit": "kJ/mol"}, {"measurement": "molar enthalpy of solution", "setting": "m1 = 0.000948", "value": "17.3 ± 0.69", "unit": "kJ/mol"}, {"measurement": "molar enthalpy of solution", "setting": "m1 = 0.001116", "value": "16.9 ± 0.68", "unit": "kJ/mol"}, {"measurement": "molar enthalpy of solution", "setting": "m1 = 0.001609", "value": "17.9 ± 0.72", "unit": "kJ/mol"}, {"measurement": "molar enthalpy of solution", "setting": "m1 = 0.00168", "value": "17.4 ± 0.7", "unit": "kJ/mol"}]}, {"smiles": "O=c1[nH]cc(C(F)(F)F)c(=O)[nH]1", "note": "[5-(trifluoromethyl)uracil] + CO", "values": [{"measurement": "molar enthalpy of solution", "setting": "m1 = 0.000648", "value": "16 ± 0.64", "unit": "kJ/mol"}, {"measurement": "molar enthalpy of solution", "setting": "m1 = 0.000687", "value": "16.5 ± 0.66", "unit": "kJ/mol"}, {"measurement": "molar enthalpy of solution", "setting": "m1 = 0.000724", "value": "15.7 ± 0.63", "unit": "kJ/mol"}, {"measurement": "molar enthalpy of solution", "setting": "m1 = 0.00076", "value": "15.1 ± 0.6", "unit": "kJ/mol"}, {"measurement": "molar enthalpy of solution", "setting": "m1 = 0.000813", "value": "15 ± 0.6", "unit": "kJ/mol"}, {"measurement": "molar enthalpy of solution", "setting": "m1 = 0.000845", "value": "15.8 ± 0.63", "unit": "kJ/mol"}]}, {"smiles": "O=c1cc[nH]c(=O)[nH]1", "note": "[2,4(1H,3H)-pyrimidinedione] + CO", "values": [{"measurement": "molar enthalpy of solution", "setting": "m1 = 0.000848", "value": "14.9 ± 0.6", "unit": "kJ/mol"}, {"measurement": "molar enthalpy of solution", "setting": "m1 = 0.000858", "value": "15.1 ± 0.6", "unit": "kJ/mol"}, {"measurement": "molar enthalpy of solution", "setting": "m1 = 0.00105", "value": "14 ± 0.56", "unit": "kJ/mol"}, {"measurement": "molar enthalpy of solution", "setting": "m1 = 0.00109", "value": "14 ± 0.56", "unit": "kJ/mol"}, {"measurement": "molar enthalpy of solution", "setting": "m1 = 0.001223", "value": "13.7 ± 0.55", "unit": "kJ/mol"}, {"measurement": "molar enthalpy of solution", "setting": "m1 = 0.001317", "value": "13.7 ± 0.55", "unit": "kJ/mol"}]}, {"smiles": "O=c1[nH]cc(Br)c(=O)[nH]1", "note": "[5-bromouracil] + CO", "values": [{"measurement": "molar enthalpy of solution", "setting": "m1 = 0.000472", "value": "14.8 ± 1.2", "unit": "kJ/mol"}, {"measurement": "molar enthalpy of solution", "setting": "m1 = 0.000548", "value": "14 ± 1.1", "unit": "kJ/mol"}, {"measurement": "molar enthalpy of solution", "setting": "m1 = 0.000563", "value": "15.6 ± 1.2", "unit": "kJ/mol"}, {"measurement": "molar enthalpy of solution", "setting": "m1 = 0.00102", "value": "15 ± 1.2", "unit": "kJ/mol"}, {"measurement": "molar enthalpy of solution", "setting": "m1 = 0.001023", "value": "15.1 ± 1.2", "unit": "kJ/mol"}, {"measurement": "molar enthalpy of solution", "setting": "m1 = 0.00125", "value": "14.6 ± 1.2", "unit": "kJ/mol"}]}]}
